Source: publication PMC9127750, “Structure-based design of CDC42 effector interaction inhibitors for the treatment of cancer” (Cell reports, 2022)
“And” between values parts separate entries of the source, which are not always exact repeats. Identical values can stand only once.

Test system: WM3248 melanoma cells, 486 antibodies
Assay: Reverse phase protein arrays (RPPA)
Assay type: cell-based, Human
Text: Pellets were snap frozen in liquid nitrogen and shipped to MD Anderson Cancer Center core RPPA facility for RPPA analysis (Table S5). Three biological replicates for each sample were generated.
Nomenclatures on the RPPA heatmaps: name_of_antibody.species_of_antibody.status_of_antibody. V - antibody validated; C - validation of antibody in progress; Q - antibody nonspecific; E – under evaluation; antibodies raised in M - mouse, G - goat, R - rabbit, or T - rat.

## CN(C)c1cccc(Nc2cc(-c3ccccc3)nc(C3CCNCC3)n2)c1 [ARN22089, N1,N1-dimethyl-N3-(6-phenyl-2-(piperidin-4-yl)pyrimidin-4-yl)benzene-1,3-diamine]
Norm_10 Average
  CD31.M.V normalized signal: 0.960
  CD38.R.C normalized signal: 0.936
  CD45.M.V normalized signal: 0.964
  CD68.M.C normalized signal: 1.001
  CD134.R.V normalized signal: 0.970
  CD171.M.V normalized signal: 0.831
  CDK1_pT14.R.C normalized signal: 0.888
  CDK9.R.V normalized signal: 0.988
  CDKN2A.R.C normalized signal: 0.963
  CDT1.R.V normalized signal: 0.925
  CENP.A.R.V normalized signal: 0.967
  CHD1L.R.V normalized signal: 1.025
  COG3.R.V normalized signal: 1.013
  CRABP1.R.C normalized signal: 0.993
  CRABP2.R.V normalized signal: 0.915
  CSK.R.C normalized signal: 0.971
  Calnexin.R.V normalized signal: 1.021
  Caspase.3.cleaved.R.C normalized signal: 0.926
  Caspase.7.cleaved..R.C normalized signal: 1.030
  Caspase.8.M.Q normalized signal: 0.998
  Caspase.8.cleaved.R.C normalized signal: 0.924
  Cdc6.R.V normalized signal: 0.962
  Cdc42.R.C normalized signal: 0.966
  Chk1.M.C normalized signal: 0.942
  Chk1_pS296.R.V normalized signal: 0.948
  Chk1_pS345.R.C normalized signal: 1.019
  Chk2.M.V normalized signal: 0.971
  Chk2_pT68.R.C normalized signal: 0.963
  Claudin.7.R.V normalized signal: 1.252
  Collagen.VI.R.V normalized signal: 1.085
  Complex.II.Subunit.M.V normalized signal: 1.079
  Connexin.43.R.C normalized signal: 1.004
  Cox2.R.C normalized signal: 1.057
  Creb.R.C normalized signal: 0.975
  CtIP.R.V normalized signal: 0.953
  Cyclin.B1.R.V normalized signal: 0.844
  Cyclin.D1.R.C normalized signal: 1.008
  Cyclin.D3.M.V normalized signal: 0.934
  Cyclophilin.F.M.V normalized signal: 0.980
  DAPK1_pS308.M.C normalized signal: 1.809
  DAPK2.R.C normalized signal: 0.982
  DDB.1.R.V normalized signal: 0.823
  DDR1.R.V normalized signal: 1.020
  DDR1_pY513.R.C normalized signal: 1.009
  DJ1.R.V normalized signal: 0.997
  DM.Histone.H3.R.V normalized signal: 0.900
  DM.K9.Histone.H3.M.V normalized signal: 0.982
  DNA.Ligase.IV.R.C normalized signal: 0.937
  DNA_POLG.R.V normalized signal: 1.080
  c.Jun_pS73.R.V normalized signal: 0.793
  c.Kit.R.V normalized signal: 1.213
  c.Met_pY1234_Y1235.R.V normalized signal: 0.933
  c.Myc.R.C normalized signal: 1.350
  cdc2_pY15.R.C normalized signal: 0.855
  cdc25C.R.V normalized signal: 0.849
Norm_10 replicates
  C.Raf.R.C normalized signal: 1.081 and 0.699 and 0.805
  C.Raf_pS338.R.V normalized signal: 0.823 and 0.996
  CA9.R.C normalized signal: 0.873 and 0.916
  CD2.M.C normalized signal: 0.952 and 0.983 and 0.955
  CD4.R.V normalized signal: 0.995 and 0.882 and 0.915
  CD5.M.C normalized signal: 0.953 and 1.022
  CD20.R.C normalized signal: 0.859 and 1.349 and 1.680
  CD26.R.V normalized signal: 0.886 and 0.919 and 1.217
  CD29.M.V normalized signal: 0.978 and 0.970
  CD31.M.V normalized signal: 0.934 and 1.028 and 0.917
  CD38.R.C normalized signal: 1.013 and 0.750 and 1.046
  CD44.R.C normalized signal: 0.886 and 1.140
  CD45.M.V normalized signal: 0.989 and 0.991
  CD49b.M.V normalized signal: 1.113 and 1.053
  CD68.M.C normalized signal: 0.973 and 0.957
  CD74.M.V normalized signal: 0.883 and 1.031 and 0.993
  CD134.R.V normalized signal: 0.926 and 1.018 and 0.966
  CD171.M.V normalized signal: 0.567 and 1.011 and 0.915
  CDK1_pT14.R.C normalized signal: 0.950 and 0.703 and 1.011
  CDK9.R.V normalized signal: 0.925 and 1.065 and 0.973
  CDKN2A.R.C normalized signal: 0.890 and 1.007 and 0.992
  CDT1.R.V normalized signal: 0.844 and 1.019
  CENP.A.R.V normalized signal: 0.909 and 0.955
  CHD1L.R.V normalized signal: 0.986 and 0.996
  CIITA.R.C normalized signal: 0.878 and 1.138 and 1.266
  COG3.R.V normalized signal: 1.048 and 1.011 and 0.981
  CRABP1.R.C normalized signal: 0.873 and 1.131 and 0.976
  CRABP2.R.V normalized signal: 0.772 and 1.150 and 0.822
  CREB_pS133.R.C normalized signal: 1.250 and 0.794 and 1.214
  CSK.R.C normalized signal: 0.836
  Calnexin.R.V normalized signal: 0.966 and 1.158 and 0.937
  Caspase.3.cleaved.R.C normalized signal: 1.008 and 0.891 and 0.879
  Caspase.7.cleaved..R.C normalized signal: 0.971 and 1.258 and 0.862
  Caspase.8.M.Q normalized signal: 0.852 and 1.055
  Caspase.8.cleaved.R.C normalized signal: 0.985 and 0.881 and 0.907
  Caveolin.1.R.V normalized signal: 0.713 and 1.122 and 1.012
  Cdc6.R.V normalized signal: 0.858 and 0.962
  Cdc42.R.C normalized signal: 0.895 and 1.029 and 0.973
  Chk1.M.C normalized signal: 0.842 and 0.983 and 1.001
  Chk1_pS296.R.V normalized signal: 1.115 and 0.789 and 0.942
  Chk1_pS345.R.C normalized signal: 1.171 and 0.894 and 0.992
  Chk2.M.V normalized signal: 0.819 and 1.005
  Chk2_pT68.R.C normalized signal: 1.200 and 0.766 and 0.922
  Claudin.7.R.V normalized signal: 0.930 and 1.663 and 1.163
  Collagen.VI.R.V normalized signal: 1.420 and 0.935 and 0.899
  Complex.II.Subunit.M.V normalized signal: 0.889 and 1.275
  Connexin.43.R.C normalized signal: 1.260 and 0.815
  Coup.TFII.R.C normalized signal: 0.934 and 0.868
  Cox2.R.C normalized signal: 1.023 and 1.193 and 0.953
  Cox.IV.R.V normalized signal: 0.958 and 0.990 and 0.892
  Creb.R.C normalized signal: 1.051 and 0.927
  CtIP.R.V normalized signal: 1.000 and 0.898 and 0.962
  Cyclin.B1.R.V normalized signal: 0.661 and 0.815 and 1.055
  Cyclin.D1.R.C normalized signal: 0.958 and 1.081 and 0.985
  Cyclin.D3.M.V normalized signal: 0.818 and 0.939
  Cyclin.E1.R.V normalized signal: 0.893
  Cyclophilin.F.M.V normalized signal: 0.808 and 1.114 and 1.018
  D.a.Tubulin.R.V normalized signal: 0.881 and 0.967 and 0.966
  DAPK1_pS308.M.C normalized signal: 1.302 and 1.636 and 2.488
  DAPK2.R.C normalized signal: 0.965 and 1.028 and 0.953
  DDB.1.R.V normalized signal: 0.974 and 0.680 and 0.815
  DDR1.R.V normalized signal: 1.019 and 1.079 and 0.961
  DDR1_pY513.R.C normalized signal: 0.985 and 1.129 and 0.914
  DJ1.R.V normalized signal: 0.990 and 1.026 and 0.974
  DM.Histone.H3.R.V normalized signal: 0.928 and 0.824
  DM.K9.Histone.H3.M.V normalized signal: 0.889 and 1.013
  DNA.Ligase.IV.R.C normalized signal: 0.935 and 0.869 and 1.008
  DNA_POLG.R.V normalized signal: 1.018 and 1.199 and 1.023
  c.Jun_pS73.R.V normalized signal: 0.788 and 0.785 and 0.805
  c.Kit.R.V normalized signal: 1.136 and 1.324
  c.Met_pY1234_Y1235.R.V normalized signal: 0.975 and 0.946 and 0.879
  c.Myc.R.C normalized signal: 2.093 and 1.046
  cGAS.R.V normalized signal: 0.953 and 1.217 and 0.956
  cdc2_pY15.R.C normalized signal: 1.104 and 0.582 and 0.878
  cdc25C.R.V normalized signal: 0.721 and 0.808 and 1.017
Norm_20, normalized to Norm_0
  MYH11.R.C Average: 1.248
  Myosin.IIa.R.C Average: 1.147
  Myosin.IIa_pS1943.R.V Average: 1.174
  Myt1.R.C Average: 0.994
  N.Cadherin.R.V Average: 0.988
  N.Ras.M.V Average: 0.878
  NAPSIN.A.R.C Average: 1.011
  NDRG1_pT346.R.V Average: 1.336
  NDUFB4.R.V Average: 1.022
  NRF2.R.C Average: 0.907
  Notch1.R.V Average: 0.937
  Notch1.cleaved.R.V Average: 0.937
  Notch3.R.C Average: 0.994
  Oct.4.R.C Average: 1.121
  P.Cadherin.R.C Average: 1.346
  PAI.1.M.V Average: 0.985
  PAICS.R.C Average: 0.928
  PAK1.R.V Average: 0.872
  PAK4.R.V Average: 0.993
  PAK_pS474_S602_S560.R.V Average: 1.208
  PAR.R.C Average: 2.108
  PARG.R.C Average: 1.394
  PARP.R.V Average: 1.133
  PAX6.R.V Average: 0.967
  PAX8.R.C Average: 0.941
  PCNA.M.C Average: 0.869
  PD.1.R.V Average: 0.984
  PD.L1.R.C Average: 0.970
  PDH.M.V Average: 0.925
  PDHA1.R.V Average: 0.956
  PDHK1.R.C Average: 0.952
  PDK1.R.V Average: 1.116
  PDK1_pS241.R.V Average: 0.965
